The values below come from patent US20260007681A1, “INDOLE DERIVATIVES AS ESTROGEN RECEPTOR DEGRADERS” (REGENTS OF THE UNIVERSITY OF MICHIGAN, priority 2022, published 2026).

For the assay, the target named is ER (Homo sapiens (Human), UniProt P03372). In words: Western blot analysis (Compounds B1-B278). In kind it is cell-based. To be noted: ER degradation by traditional Western blot; DC50 classes. The protocol: Western Blot Analysis. The cells that are treated with the compounds are lysed in Radioimmunoprecipitation Assay Protein Lysis and Extraction Buffer (e.g., 25 mmol/L Tris.HCl, pH 7.6, 150 mmol/L NaCl, 1% Nonidet P-40, 1% sodium deoxycholate, and 0.1% sodium dodecyl sulfate) containing proteinase inhibitor cocktail. Equal amounts of total protein are electrophoresed through 10% SDS-polyacrylamide gels after determination of protein concentration by BCA assay. The separated protein bands are transferred onto PVDF membranes and blotted against different antibodies. The blots are scanned, and the band intensities are quantified (e.g., by using GelQuant.NET software provided by biochemlabsolutions.com). The relative mean intensity of target proteins is expressed after normalization to the intensity of glyceraldehyde-3-phosphate dehydrogenase bands.
Chain of ER (P03372 whole entry): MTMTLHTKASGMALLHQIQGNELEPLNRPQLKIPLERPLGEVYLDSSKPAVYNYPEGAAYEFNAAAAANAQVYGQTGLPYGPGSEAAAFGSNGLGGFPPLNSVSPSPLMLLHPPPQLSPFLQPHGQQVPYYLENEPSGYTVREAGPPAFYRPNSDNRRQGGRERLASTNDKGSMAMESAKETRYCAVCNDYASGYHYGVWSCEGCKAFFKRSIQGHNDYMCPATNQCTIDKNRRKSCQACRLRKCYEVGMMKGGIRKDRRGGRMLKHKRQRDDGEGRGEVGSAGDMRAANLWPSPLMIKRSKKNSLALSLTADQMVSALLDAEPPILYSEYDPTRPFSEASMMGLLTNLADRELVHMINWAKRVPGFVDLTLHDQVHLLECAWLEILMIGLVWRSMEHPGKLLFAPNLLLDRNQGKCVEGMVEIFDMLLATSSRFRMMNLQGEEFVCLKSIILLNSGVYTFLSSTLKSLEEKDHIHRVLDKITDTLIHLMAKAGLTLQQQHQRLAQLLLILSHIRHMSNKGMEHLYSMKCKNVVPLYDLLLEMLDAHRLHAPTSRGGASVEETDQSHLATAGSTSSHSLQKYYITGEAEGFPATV
Western Blot Analysis. Western blot analysis was performed essentially as described previously. The cells treated with indicated compounds were lysed in Radioimmunoprecipitation Assay Protein Lysis and Extraction Buffer (25 mmol/L Tris.HCl, pH 7.6, 150 mmol/L NaCl, 1% Nonidet P-40, 1% sodium deoxycholate, and 0.1% sodium dodecyl sulfate) containing proteinase inhibitor cocktail (Roche Diagnostics, Mannheim, Germany). Equal amounts of total protein were electrophoresed through 10% SDS-polyacrylamide gels after determination of protein concentration by BCA assay (Fisher Scientific, Pittsburgh, PA). The separated protein bands were transferred onto PVDF membranes (GE Healthcare Life Sciences, Marlborough, MA) and blotted against different antibodies, as indicated. The blots were scanned, and the band intensities were quantified using GelQuant.NET software provided by biochemlabsolutions.com. The relative mean intensity of target proteins was expressed after normalization to the intensity of glyceraldehyde-3-phosphate dehydrogenase bands.
For orientation: A western blot detects proteins with antibodies after separation by electrophoresis.
As for `C[C@@H]1Cc2c([nH]c3ccccc23)[C@@H](c2c(F)cc(N3CCCC4(CCN(C(=O)CN5Cc6cc7c(cc6C5)C(=O)N(C5CCC(=O)NC5=O)C7=O)C4)C3)cc2F)N1CC(F)F` (stereo partly drawn) [Compound B21, 6-(2-(7-(4-((1R,3R)-2-(2,2-difluoroethyl)-3-methyl-2,3,4,9-tetrahydro-1H-pyrido[3,4-b]indol-1-yl)-3,5-difluorophenyl)-2,7-diazaspiro[4.5]decan-2-yl)-2-oxoethyl)-2-(2,6-dioxopiperidin-3-yl)-6,7-dihydropyrrolo[3,4-f]isoindole-1,3(2H,5H)-dione], the “Traditional Western Degradation Potency” value was “C (“C”: >100 nM)”.
Turning to `C[C@@H]1Cc2c([nH]c3ccccc23)[C@@H](c2c(F)cc(N3CCC4(CCN(C(=O)CN5Cc6cc7c(cc6C5)C(=O)N(C5CCC(=O)NC5=O)C7=O)C4)C3)cc2F)N1CC(F)F` (stereo partly drawn) [Compound B22, 6-(2-(7-(4-((1R,3R)-2-(2,2-difluoroethyl)-3-methyl-2,3,4,9-tetrahydro-1H-pyrido[3,4-b]indol-1-yl)-3,5-difluorophenyl)-2,7-diazaspiro[4.4]nonan-2-yl)-2-oxoethyl)-2-(2,6-dioxopiperidin-3-yl)-6,7-dihydropyrrolo[3,4-f]isoindole-1,3(2H,5H)-dione], the “Traditional Western Degradation Potency” value is reported as “B (“B”: 10-100 nM)”.
Regarding `C[C@H]1Cc2c([nH]c3ccccc23)[C@H](c2c(F)cc(N3CC4(CCCN(C(=O)CN5Cc6cc7c(cc6C5)C(=O)N(C5CCC(=O)NC5=O)C7=O)C4)C3)cc2F)N1CC(F)F` (stereo partly drawn) [Compound B23, 6-(2-(2-(4-((1S,3S)-2-(2,2-difluoroethyl)-3-methyl-2,3,4,9-tetrahydro-1H-pyrido[3,4-b]indol-1-yl)-3,5-difluorophenyl)-2,6-diazaspiro[3.5]nonan-6-yl)-2-oxoethyl)-2-(2,6-dioxopiperidin-3-yl)-6,7-dihydropyrrolo[3,4-f]isoindole-1,3(2H,5H)-dione], the “Traditional Western Degradation Potency” value is on record as “B (“B”: 10-100 nM)”.
The result for `C[C@@H]1Cc2c([nH]c3ccccc23)[C@@H](c2c(F)cc(N3CCCC4(CN(C(=O)CN5Cc6cc7c(cc6C5)C(=O)N(C5CCC(=O)NC5=O)C7=O)C4)C3)cc2F)N1CC(F)F` (stereo partly drawn) [Compound B24, 6-(2-(6-(4-((1R,3R)-2-(2,2-difluoroethyl)-3-methyl-2,3,4,9-tetrahydro-1H-pyrido[3,4-b]indol-1-yl)-3,5-difluorophenyl)-2,6-diazaspiro[3.5]nonan-2-yl)-2-oxoethyl)-2-(2,6-dioxopiperidin-3-yl)-6,7-dihydropyrrolo[3,4-f]isoindole-1,3(2H,5H)-dione] reads “B (“B”: 10-100 nM)”; that for `C[C@@H]1Cc2c([nH]c3ccccc23)[C@@H](c2c(F)cc(N3CC4(CN(C(=O)CN5Cc6cc7c(cc6C5)C(=O)N(C5CCC(=O)NC5=O)C7=O)C4)C3)cc2F)N1CC(F)F` (stereo partly drawn) [Compound B25, 6-(2-(6-(4-((1R,3R)-2-(2,2-difluoroethyl)-3-methyl-2,3,4,9-tetrahydro-1H-pyrido[3,4-b]indol-1-yl)-3,5-difluorophenyl)-2,6-diazaspiro[3.3]heptan-2-yl)-2-oxoethyl)-2-(2,6-dioxopiperidin-3-yl)-6,7-dihydropyrrolo[3,4-f]isoindole-1,3(2H,5H)-dione], “A (“A”: <10 nM)”; that for `C[C@@H]1Cc2c([nH]c3ccccc23)[C@@H](c2c(F)cc(N3CCC4(CN(C(=O)CN5Cc6cc7c(cc6C5)C(=O)N(C5CCC(=O)NC5=O)C7=O)C4)C3)cc2F)N1CC(F)F` (stereo partly drawn) [Compound B26, 6-(2-(6-(4-((1R,3R)-2-(2,2-difluoroethyl)-3-methyl-2,3,4,9-tetrahydro-1H-pyrido[3,4-b]indol-1-yl)-3,5-difluorophenyl)-2,6-diazaspiro[3.4]octan-2-yl)-2-oxoethyl)-2-(2,6-dioxopiperidin-3-yl)-6,7-dihydropyrrolo[3,4-f]isoindole-1,3(2H,5H)-dione], “A (“A”: <10 nM)”.
